In article PMC11420776 (RSC Advances, 2024):

Columns and labels:
UACC-257 (melanoma) = assay: NCI 60-cell one-dose antiproliferative screen; format: cell-based, human; settings: one dose 10 μM
SK-MEL-28 (melanoma) = assay: NCI 60-cell one-dose antiproliferative screen; format: cell-based, human; settings: one dose 10 μM
UACC-62 (melanoma) = assay: NCI 60-cell one-dose antiproliferative screen; format: cell-based, human; settings: one dose 10 μM
[1] = test system: NCI-H226 (NSC lung cancer); assay: NCI 60-cell one-dose antiproliferative screen; format: cell-based, human; settings: one dose 10 μM
[2] = test system: NCI/ADR-RES (ovarian cancer); assay: NCI 60-cell one-dose antiproliferative screen; format: cell-based, human; settings: one dose 10 μM
SF-268 (CNS cancer) = assay: NCI 60-cell one-dose antiproliferative screen; format: cell-based, human; settings: one dose 10 μM
KM12 (colon cancer) = assay: NCI 60-cell one-dose antiproliferative screen; format: cell-based, human; settings: one dose 10 μM
SNB-75 (CNS cancer) = assay: NCI 60-cell one-dose antiproliferative screen; format: cell-based, human; settings: one dose 10 μM
TK-10 (renal cancer) = assay: NCI 60-cell one-dose antiproliferative screen; format: cell-based, human; settings: one dose 10 μM
[3] = test system: NCI-H460 (NSC lung cancer); assay: NCI 60-cell one-dose antiproliferative screen; format: cell-based, human; settings: one dose 10 μM
SF-295 (CNS cancer) = assay: NCI 60-cell one-dose antiproliferative screen; format: cell-based, human; settings: one dose 10 μM
U251 (CNS cancer) = assay: NCI 60-cell one-dose antiproliferative screen; format: cell-based, human; settings: one dose 10 μM
UO-31 (renal cancer) = assay: NCI 60-cell one-dose antiproliferative screen; format: cell-based, human; settings: one dose 10 μM
[4] = test system: NCI-H322M (NSC lung cancer); assay: NCI 60-cell one-dose antiproliferative screen; format: cell-based, human; settings: one dose 10 μM
T-47D (breast cancer) = assay: NCI 60-cell one-dose antiproliferative screen; format: cell-based, human; settings: one dose 10 μM
MALME-3M (melanoma) = assay: NCI 60-cell one-dose antiproliferative screen; format: cell-based, human; settings: one dose 10 μM
[5] = test system: 60 human tumor cell lines; assay: NCI 60-cell one-dose antiproliferative screen, whole panel; format: cell-based; settings: Homo sapiens, 60 cell, read-out: Mean inhibition (mean GI%)
LOX IMIV (melanoma) = assay: NCI 60-cell one-dose antiproliferative screen; format: cell-based, human; settings: one dose 10 μM
MCF7 (breast cancer) = assay: NCI 60-cell one-dose antiproliferative screen; format: cell-based, human; settings: one dose 10 μM
OVCAR-4 (ovarian cancer) = assay: NCI 60-cell one-dose antiproliferative screen; format: cell-based, human; settings: one dose 10 μM
RPMI-8226 (leukemia) = assay: NCI 60-cell one-dose antiproliferative screen; format: cell-based, human; settings: one dose 10 μM
IGROV1 (ovarian cancer) = assay: NCI 60-cell one-dose antiproliferative screen; format: cell-based, human; settings: one dose 10 μM
HS 578T (breast cancer) = assay: NCI 60-cell one-dose antiproliferative screen; format: cell-based, human; settings: one dose 10 μM
OVCAR-8 (ovarian cancer) = assay: NCI 60-cell one-dose antiproliferative screen; format: cell-based, human; settings: one dose 10 μM
A498 (renal cancer) = assay: NCI 60-cell one-dose antiproliferative screen; format: cell-based, human; settings: one dose 10 μM
SK-OV-3 (ovarian cancer) = assay: NCI 60-cell one-dose antiproliferative screen; format: cell-based, human; settings: one dose 10 μM
ACHN (renal cancer) = assay: NCI 60-cell one-dose antiproliferative screen; format: cell-based, human; settings: one dose 10 μM
HT29 (colon cancer) = assay: NCI 60-cell one-dose antiproliferative screen; format: cell-based, human; settings: one dose 10 μM
[6] = test system: MDA-MB-231/ATCC (breast cancer); assay: NCI 60-cell one-dose antiproliferative screen; format: cell-based, human; settings: one dose 10 μM
MDA-MB-435 (melanoma) = assay: NCI 60-cell one-dose antiproliferative screen; format: cell-based, human; settings: one dose 10 μM
M14 (melanoma) = assay: NCI 60-cell one-dose antiproliferative screen; format: cell-based, human; settings: one dose 10 μM
786-0 (renal cancer) = assay: NCI 60-cell one-dose antiproliferative screen; format: cell-based, human; settings: one dose 10 μM
HCT-15 (colon cancer) = assay: NCI 60-cell one-dose antiproliferative screen; format: cell-based, human; settings: one dose 10 μM
HCC-2998 (colon cancer) = assay: NCI 60-cell one-dose antiproliferative screen; format: cell-based, human; settings: one dose 10 μM
[7] = test system: NCI-H522 (NSC lung cancer); assay: NCI 60-cell one-dose antiproliferative screen; format: cell-based, human; settings: one dose 10 μM
[8] = test system: A549/ATCC (NSC lung cancer); assay: NCI 60-cell one-dose antiproliferative screen; format: cell-based, human; settings: one dose 10 μM
PC-3 (prostate cancer) = assay: NCI 60-cell one-dose antiproliferative screen; format: cell-based, human; settings: one dose 10 μM
DU-145 (prostate cancer) = assay: NCI 60-cell one-dose antiproliferative screen; format: cell-based, human; settings: one dose 10 μM
COLO-205 (colon cancer) = assay: NCI 60-cell one-dose antiproliferative screen; format: cell-based, human; settings: one dose 10 μM
HOP-92 (NSC lung cancer) = assay: NCI 60-cell one-dose antiproliferative screen; format: cell-based, human; settings: one dose 10 μM
[9] = test system: NCI-H23 (NSC lung cancer); assay: NCI 60-cell one-dose antiproliferative screen; format: cell-based, human; settings: one dose 10 μM
OVCAR-5 (ovarian cancer) = assay: NCI 60-cell one-dose antiproliferative screen; format: cell-based, human; settings: one dose 10 μM
SF-539 (CNS cancer) = assay: NCI 60-cell one-dose antiproliferative screen; format: cell-based, human; settings: one dose 10 μM
HCT-116 (colon cancer) = assay: NCI 60-cell one-dose antiproliferative screen; format: cell-based, human; settings: one dose 10 μM
CCRF-CEM (leukemia) = assay: NCI 60-cell one-dose antiproliferative screen; format: cell-based, human; settings: one dose 10 μM
SN12C (renal cancer) = assay: NCI 60-cell one-dose antiproliferative screen; format: cell-based, human; settings: one dose 10 μM
CAKI-1 (renal cancer) = assay: NCI 60-cell one-dose antiproliferative screen; format: cell-based, human; settings: one dose 10 μM
[10] = test system: MDA-MB-468 (breast cancer); assay: NCI 60-cell one-dose antiproliferative screen; format: cell-based, human; settings: one dose 10 μM
SK-MEL-2 (melanoma) = assay: NCI 60-cell one-dose antiproliferative screen; format: cell-based, human; settings: one dose 10 μM
RXF 393 (renal cancer) = assay: NCI 60-cell one-dose antiproliferative screen; format: cell-based, human; settings: one dose 10 μM
EKVX (NSC lung cancer) = assay: NCI 60-cell one-dose antiproliferative screen; format: cell-based, human; settings: one dose 10 μM
SNB-19 (CNS cancer) = assay: NCI 60-cell one-dose antiproliferative screen; format: cell-based, human; settings: one dose 10 μM
SW-620 (colon cancer) = assay: NCI 60-cell one-dose antiproliferative screen; format: cell-based, human; settings: one dose 10 μM
HOP-62 (NSC lung cancer) = assay: NCI 60-cell one-dose antiproliferative screen; format: cell-based, human; settings: one dose 10 μM
OVCAR-3 (ovarian cancer) = assay: NCI 60-cell one-dose antiproliferative screen; format: cell-based, human; settings: one dose 10 μM

COc1ccc(-c2nnc3ccc(NNC(C)=O)nn23)cc1 [Compound 6b, N′-(3-(4-methoxyphenyl)-[1,2,4]triazolo[4,3-b]pyridazin-6-yl)acetohydrazide]
— (— GI% is below 15%): GI% (UACC-257 (melanoma)) | GI% (SK-MEL-28 (melanoma)) | GI% (UACC-62 (melanoma)) | GI% [1] | GI% [2] | GI% (SF-268 (CNS cancer)) | GI% (KM12 (colon cancer)) | GI% (SNB-75 (CNS cancer)) | GI% (TK-10 (renal cancer)) | GI% [3] | GI% (SF-295 (CNS cancer)) | GI% (U251 (CNS cancer)) | GI% (UO-31 (renal cancer)) | GI% [4] | GI% (T-47D (breast cancer)) | GI% (MALME-3M (melanoma)) | GI% (LOX IMIV (melanoma)) | GI% (MCF7 (breast cancer)) | GI% (OVCAR-4 (ovarian cancer)) | GI% (RPMI-8226 (leukemia)) | GI% (IGROV1 (ovarian cancer)) | GI% (HS 578T (breast cancer)) | GI% (OVCAR-8 (ovarian cancer)) | GI% (A498 (renal cancer)) | GI% (SK-OV-3 (ovarian cancer)) | GI% (ACHN (renal cancer)) | GI% (HT29 (colon cancer)) | GI% [6] | GI% (MDA-MB-435 (melanoma)) | GI% (M14 (melanoma)) | GI% (786-0 (renal cancer)) | GI% (HCT-15 (colon cancer)) | GI% (HCC-2998 (colon cancer)) | GI% [7] | GI% [8] | GI% (PC-3 (prostate cancer)) | GI% (DU-145 (prostate cancer)) | GI% (COLO-205 (colon cancer)) | GI% (HOP-92 (NSC lung cancer)) | GI% [9] | GI% (OVCAR-5 (ovarian cancer)) | GI% (SF-539 (CNS cancer)) | GI% (HCT-116 (colon cancer)) | GI% (CCRF-CEM (leukemia)) | GI% (SN12C (renal cancer)) | GI% (CAKI-1 (renal cancer)) | GI% [10] | GI% (SK-MEL-2 (melanoma)) | GI% (RXF 393 (renal cancer)) | GI% (EKVX (NSC lung cancer)) | GI% (SNB-19 (CNS cancer)) | GI% (SW-620 (colon cancer)) | GI% (HOP-62 (NSC lung cancer)) | GI% (OVCAR-3 (ovarian cancer))
< 0%: inhibition at 10 µM [5]
